What all share (format): functional
Test [1] can be described thus: Nitric oxide releasing effect was determined.
The target in test [2] is T1, Type-1 angiotensin II receptor (Homo sapiens) (UniProt P30556).
T1 sequence (whole entry): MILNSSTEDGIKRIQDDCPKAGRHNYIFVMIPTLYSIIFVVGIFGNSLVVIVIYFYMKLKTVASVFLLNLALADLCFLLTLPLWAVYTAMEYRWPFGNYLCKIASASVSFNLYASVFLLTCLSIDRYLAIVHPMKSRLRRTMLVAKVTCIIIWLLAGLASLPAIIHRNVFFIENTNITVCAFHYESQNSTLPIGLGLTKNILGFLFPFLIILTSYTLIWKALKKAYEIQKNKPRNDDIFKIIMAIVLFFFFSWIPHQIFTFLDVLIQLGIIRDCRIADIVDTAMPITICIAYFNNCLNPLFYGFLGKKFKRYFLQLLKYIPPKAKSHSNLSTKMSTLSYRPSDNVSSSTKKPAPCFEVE
The experiment in a line: Antagonistic activity against Angiotensin II receptor type 1.

Test [3] in a line: Vasorelaxing activity was determined.
Test [4] concerns the target T1, Type-1 angiotensin II receptor (Homo sapiens). The experiment in a line: Antagonistic activity against Angiotensin II receptor type 1 in presence of eserin.
The nature of test [5]: Vasorelaxing activity in the presence of eserin was determined.

What is called Kb is the equilibrium dissociation constant of an antagonist, usually derived from a functional assay. In the case of `CCCCc1nc(Cl)c(COC(=O)CCCCO[N+](=O)[O-])n1Cc1ccc(-c2ccccc2-c2nn[nH]n2)cc1`, the Efficacy in test [1] was determined as 23; in test [3] it was 95%. Further, in test [2], the antagonist equilibrium constant (Kb) came out at 16 nM.
For `CCCCc1nc(Cl)c(COC(=O)c2cccc(CO[N+](=O)[O-])c2)n1Cc1ccc(-c2ccccc2-c2nn[nH]n2)cc1`, the antagonist equilibrium constant (Kb) in test [4] was 40 nM; in test [2], 6 nM. Also, the results for the Efficacy in test [1], in test [5] and in test [3] were 34, 91 and 92%, respectively.
As to `O=C(O)c1cccc(CO[N+](=O)[O-])c1`, the Efficacy in test [5] was 71; in test [3], 67%.

(Values after ChEMBL document CHEMBL1138805, “NO-sartans: a new class of pharmacodynamic hybrids as cardiovascular drugs” (J Med Chem, 2004).)
